Laboratory results taken from patent US20250049779A1, “COMBINATION OF AN A2-ADRENOCEPTOR SUBTYPE C (ALPHA-2C) ANTAGONIST WITH A NOREPINEPHRINE REUPTAKE INHIBITOR FOR THE TREATMENT OF SLEEP APNEA” (Bayer Aktiengesellschaft, priority 2021, published 2025).

Test system: upper airway collapsibility
Experiment: pig model of obstructive sleep apnea (OSA): collapse of the upper respiratory tract induced by negative pressure in anaesthetized, spontaneously breathing pigs
Type: in vivo, German Landrace pigs
Details: for Percent pigs without collaps −150 cm H2O, %: −150 cm H2O (column head; title prints −100)
Source text: The therapeutic potential of the combination of an α2-Adrenoceptor subtype C (alpha-2C) antagonists with a noradrenaline reuptake inhibitor according to the present invention in sleep apnea can be assessed preclinically in a pig model of obstructive sleep apnea (OSA).
Using negative pressure, it is possible to induce collapse and thus obstruction of the upper respiratory tract in anaesthetized, spontaneously breathing pigs (Wirth K. J. et al., Sleep 36(5) (2013) pp. 699-708).
German Landrace pigs are used for the model. The pigs are anaesthetized and tracheotomized. Two tracheal cannulas are inserted into the trachea, one into the rostral part and the other into the caudal part of the trachea. Using a connection piece, the rostral cannula is connected to a tube to the negative pressure device and to the distal tracheal cannula. The distal tracheal cannula is additionally connected to a tube with an open end to atmosphere via a connection piece that served for free tracheal breathing, circumventing the upper airway. By appropriate opening and clamping of those tubes breathing can be switched from nasal breathing to breathing through the caudal tracheal cannula, circumventing the upper airway, and the (isolated) upper airway can be connected to the negative pressure device, causing airflow in the inspiratory direction.
At certain points in time, the collapsibility of the upper respiratory tract is tested by having the pig breathe via the caudal cannula and applying negative pressures of −50, −100 and −150 cm water head (cm H2O) to the upper respiratory tract. This causes the upper respiratory tract to collapse, which manifests itself in an interruption of the airflow and a pressure drop in the tube system. This test is conducted prior to the administration of the test substance and at certain intervals after the administration of the test substance. An appropriately effective test substance can prevent this collapse of the respiratory tract in the inspiratory phase.

[1] = intravenous bolus 20 μg/kg then infusion 12.5 μg/kg/h for four hours, time 0 min (time of administration)
[2] = intravenous bolus 20 μg/kg then infusion 12.5 μg/kg/h for four hours, time 10 min
[3] = intravenous bolus 20 μg/kg then infusion 12.5 μg/kg/h for four hours, time 30 min
[4] = intravenous bolus 20 μg/kg then infusion 12.5 μg/kg/h for four hours, time 60 min
[5] = intravenous bolus 20 μg/kg then infusion 12.5 μg/kg/h for four hours, time 120 min
[6] = intravenous bolus 20 μg/kg then infusion 12.5 μg/kg/h for four hours, time 180 min
[7] = intravenous bolus 20 μg/kg then infusion 12.5 μg/kg/h for four hours, time 240 min

## C[C@@H]1CCCN(C2CCN(c3ncc(C(=O)NCc4ncc(F)cc4F)s3)CC2)C1 [N-[(3,5-difluoropyridin-2-yl)methyl]-2-[(3R)-3-methyl[1,4′-bipiperidin]-1′-yl]-1,3-thiazole-5-carboxamide]
0.01 mg/kg intraduodenal
  inhibited upper airway collapsibility at all negative pressures of −50, −100 and −150 cm head (cm H2O) in all pigs: at no time point
0.01 mg/kg intraduodenal, 120 min after administration
  upper airway collapsibility at the negative pressures of −50 and −100 cm head (cm H2O): inhibited
0.01 mg/kg intraduodenal, 150 min after administration
  upper airway collapsibility at the negative pressure of −50 cm head (cm H2O): inhibited

## CNCC[C@@H](Oc1ccccc1C)c1ccccc1 [atomoxetine]
Intravenous bolus 20 μg/kg then infusion 12.5 μg/kg/h for four hours
  inhibited upper airway collapsibility at all negative pressures of −50, −100 and −150 cm head (cm H2O) in all pigs: at no time
[1]
  Percent pigs without collaps −50 cm H2O, %: 0%
  Percent pigs without collaps −100 cm H2O, %: 0%
  Percent pigs without collaps −150 cm H2O, %: 0%
[2]
  Percent pigs without collaps −50 cm H2O, %: 0%
  Percent pigs without collaps −100 cm H2O, %: 0%
  Percent pigs without collaps −150 cm H2O, %: 0%
[3]
  Percent pigs without collaps −50 cm H2O, %: 0%
  Percent pigs without collaps −100 cm H2O, %: 0%
  Percent pigs without collaps −150 cm H2O, %: 0%
[4]
  Percent pigs without collaps −50 cm H2O, %: 0%
  Percent pigs without collaps −100 cm H2O, %: 0%
  Percent pigs without collaps −150 cm H2O, %: 0%
[5]
  Percent pigs without collaps −50 cm H2O, %: 0%
  Percent pigs without collaps −100 cm H2O, %: 0%
  Percent pigs without collaps −150 cm H2O, %: 0%
[6]
  Percent pigs without collaps −50 cm H2O, %: 0%
  Percent pigs without collaps −100 cm H2O, %: 0%
  Percent pigs without collaps −150 cm H2O, %: 0%
[7]
  Percent pigs without collaps −50 cm H2O, %: 0%
  Percent pigs without collaps −100 cm H2O, %: 0%
  Percent pigs without collaps −150 cm H2O, %: 0%
